Source: US4962112A, “7-(2-methyl-4-aminopyrrolidinyl)naphthryidine and quinoline compounds” (Abbott Laboratories, priority 1988, dated 1990)
≈ marks a conversion by molar mass, not a printed value. Read-outs that look alike come from different tables or passages of the source.

How the values were obtained:
S. agalactiae = assay: In vitro antibacterial activity, agar dilution MIC; type: cell-based; conditions: Streptococcus agalactiae, 18 h
P. aeruginosa = assay: In vitro antibacterial activity, agar dilution MIC; type: cell-based; conditions: Pseudomonas aeruginosa, 18 h
C. difficile = assay: In vitro antibacterial activity, agar dilution MIC; type: cell-based; conditions: Clostridioides difficile
K. pneumoniae = assay: In vitro antibacterial activity, agar dilution MIC; type: cell-based, Klebsiella pneumoniae
S. pyogenes = assay: In vitro antibacterial activity, agar dilution MIC; type: cell-based; conditions: Streptococcus pyogenes, 18 h
[1] = Oral pharmacokinetics, blood level by disk agar diffusion bioassay; type: in vivo, Mice; conditions: mice, oral 100 mg/kg
Experimental: Mice were administered the quantity of compound indicated orally, as a single dose. At the specified time intervals, blood was collected from groups of five mice. All samples were assayed by a disk agar diffusion bioassay procedure. Bacillus subtilis 6633 or Klebsiella pneumoniae 10032 were used as the assay organisms, and seek agar medium No. 1 (BBL Microbiology Systems; Cockeysville, MD) was the growth medium. The plates were incubated at 32° C for 18 h and read with an image analyzer (Optomax Inc.).

S. aureus = assay: In vitro antibacterial activity, agar dilution MIC; type: cell-based; conditions: Staphylococcus aureus
Experimental: (§1) The in vitro antibacterial activity of the test compound was determined by conventional agar dilution procedures. The organisms were grown overnight in brain-heart infusion (BHI) broth (Difco 0037-01-6) at 36° C. Twofold dilutions of the stock solution ([…]) of the test compound were made in BHI agar obtain a test concentration ranging from […]. The plate was inoculated with approximately 10^4 organisms. It was then incubated at 36° C. for 18 h. the minimal inhibitory concentration was the lowest concentration of the test compound that yielded no visible growth on the plate.

E. coli = assay: In vitro antibacterial activity, agar dilution MIC; type: cell-based; conditions: Escherichia coli
Experimental: as §1

L. bozemanni = assay: In vitro antibacterial activity, agar dilution MIC; type: cell-based; conditions: 18 h; L. bozemanni ATCC 33217
Experimental: as §1

H. influenza = assay: In vitro antibacterial activity, agar dilution MIC; type: cell-based; conditions: 18 h
Experimental: as §1

E. faecalis = assay: In vitro antibacterial activity, agar dilution MIC; type: cell-based; conditions: Enterococcus faecalis, 18 h
L. pneumophila = assay: microbe, parasite or virus in culture; type: cell-based; conditions: Legionella pneumophila
N. gonorrhoeae = assay: In vitro antibacterial activity, agar dilution MIC; type: cell-based; conditions: Neisseria gonorrhoeae, 18 h
B. fragilis = assay: In vitro antibacterial activity, agar dilution MIC; type: cell-based; conditions: Bacteroides fragilis
P. mirabilis = assay: In vitro antibacterial activity, agar dilution MIC; type: cell-based; conditions: Proteus mirabilis, 18 h
[2] = Aqueous solubility in Ringer's buffer at pH 7.5 (HPLC); type: physicochemical; conditions: at pH 7.5 in Ringer's buffer
Experimental: A known excess weight of the compound was shaken overnight with a known volume of Ringer's buffer (bicarbonate buffer containing sodium, potassium, calcium and magnesium ions, initially adjusted to pH 7.5). The contents were filtered, and the clear filtrate was analyzed after appropriate dilution using HPLC (UV absorbance detection).

PSEUDOMONAS CEPACIA = assay: In vitro antibacterial activity, agar dilution MIC; type: cell-based; conditions: Burkholderia cepacia, 18 h; PSEUDOMONAS CEPACIA 296I
EN[…] = assay: In vitro antibacterial activity, agar dilution MIC; type: cell-based; conditions: Enterococcus faecium, ATCC8043, 18 h; EN[…] ATCC 8043
Experimental: as §1

M[…] = assay: In vitro antibacterial activity, agar dilution MIC; type: cell-based; conditions: Micrococcus luteus
Experimental: as §1

[3] = tested on: STAPHYLOCOCCUS EPIDERMIDIS; assay: In vitro antibacterial activity, agar dilution MIC; type: cell-based; conditions: 18 h; STAPHYLOCOCCUS EPIDERMIDIS 3519
STREPTOCOCCUS BOVIS = assay: In vitro antibacterial activity, agar dilution MIC; type: cell-based; conditions: Streptococcus equinus, 18 h; STREPTOCOCCUS BOVIS A5196
ACINETOBACTER SP = assay: In vitro antibacterial activity, agar dilution MIC; type: cell-based; conditions: 18 h; ACINETOBACTER SP CMX 669
PROVIDENCIA STUARTII = assay: In vitro antibacterial activity, agar dilution MIC; type: cell-based; conditions: 18 h

SMILES: NC1CCN(c2nc3c(cc2F)c(=O)c(C(=O)O)cn3-c2ccc(F)cc2F)C1 (stereo not drawn) [Example A, 7-(3-Amino-pyrrolidin-1-yl)-1-(2,4-difluorophenyl)-1,4-dihydro-6-fluoro--oxo-1,8-naphthyridine-3-carboxylic acid, reference compound]
- MIC (S. agalactiae; S. agalactiae CMX 508 (Table 1)): 0.12 µg/mL (≈ 0.297 µM)
- MIC (P. aeruginosa; P. aeruginosa A 5005): 0.5 µg/mL (≈ 1.24 µM)
- MIC (P. aeruginosa; P. aeruginosa CFS 350F): 0.5 µg/mL (≈ 1.24 µM)
- MIC (P. aeruginosa; P. aeruginosa CFS 387C): 1 µg/mL (≈ 2.47 µM)
- MIC (P. aeruginosa; P. aeruginosa CMX 719A): 2 µg/mL (≈ 4.95 µM)
- MIC (C. difficile; ATCC9689, 18 h, C. difficile ATCC 9689): 1.6 µg/mL (≈ 3.96 µM)
- MIC (C. difficile; ATCC17857, 18 h, C. difficile ATCC 17857): 0.8 µg/mL (≈ 1.98 µM)
- MIC (K. pneumoniae; K. pneumoniae CMX 735A): 0.06 MCG/ML
- MIC (K. pneumoniae; Klebsiella pneumoniae, 18 h, K. pneumoniae CMX 724A, read-out: MIC): 0.06 µg/mL (≈ 0.148 µM)
- MIC (S. pyogenes; S. pyogenes M79061-98): 0.25 µg/mL (≈ 0.618 µM)
- Blood Level of Compound ([1]; t = 1.0 h): 2300 ng/mL
- Blood Level of Compound ([1]; t = 2.0 h): 1700 ng/mL
- Blood Level of Compound ([1]; t = 3.0 h): 1700 ng/mL
- Blood Level of Compound ([1]; t = 6.0 h): 900 ng/mL
- MIC (S. aureus; 18 h, S. aureus CMX 705): 0.03 µg/mL (≈ 0.0742 µM)
- MIC (S. aureus; 18 h, S. aureus CMX 730A): 0.03 µg/mL (≈ 0.0742 µM)
- MIC (S. aureus; 18 h, S. aureus GYR 1162): 0.03 µg/mL (≈ 0.0742 µM)
- MIC (S. aureus; ATCC25923, 18 h, S. aureus ATCC 25923): 0.03 µg/mL (≈ 0.0742 µM)
- MIC (E. coli; 18 h, E. coli CMX 733): 0.03 µg/mL (≈ 0.0742 µM)
- MIC (E. coli; 18 h, E. coli CMX 744A): 0.03 µg/mL (≈ 0.0742 µM)
- MIC (E. coli; 18 h, E. coli CMX 756): 0.03 µg/mL (≈ 0.0742 µM)
- MIC (E. coli; ATCC25922, 18 h, E. coli ATCC 25922): 0.03 µg/mL (≈ 0.0742 µM)
- MIC (L. bozemanni): 0.5 µg/mL (≈ 1.24 µM)
- MIC (H. influenza; H. influenza 504): 0.15 µg/mL (≈ 0.371 µM)
- MIC (H. influenza; H. influenza 519A): 0.15 µg/mL (≈ 0.371 µM)
- MIC (H. influenza; H. influenza 566A): 0.15 µg/mL (≈ 0.371 µM)
- MIC (H. influenza; H. influenza 588A, read-out: MIC): 0.008 µg/mL (≈ 0.0198 µM)
- MIC (E. faecalis; E. faecalis CMX 729G): 0.25 µg/mL (≈ 0.618 µM)
- MIC (E. faecalis; E. faecalis GYR 1166): 0.5 µg/mL (≈ 1.24 µM)
- MIC (L. pneumophila; 18 h): 0.25 µg/mL (≈ 0.618 µM)
- MIC (L. pneumophila; ATCC33152, 18 h): 0.25 µg/mL (≈ 0.618 µM)
- MIC (N. gonorrhoeae; N. gonorrhoeae 35F AMPI): 0.004 µg/mL (≈ 0.00989 µM)
- MIC (N. gonorrhoeae; N. gonorrhoeae CMX 591): 0.06 µg/mL (≈ 0.148 µM)
- MIC (B. fragilis; 18 h, B. fragilis AT25285): 0.4 µg/mL (≈ 0.989 µM)
- MIC (B. fragilis; UC2, 18 h, B. fragilis UC-2): 0.8 µg/mL (≈ 1.98 µM)
- MIC (P. mirabilis; P. mirabilis CMX 704F): 0.25 µg/mL (≈ 0.618 µM)
- MIC (P. mirabilis; P. mirabilis CMX 729B): 0.12 µg/mL (≈ 0.297 µM)
- solubility [2]: 8 µg/mL (≈ 19.8 µM)

SMILES: NC1CCN(c2cc3c(cc2F)c(=O)c(C(=O)O)cn3-c2ccc(F)cc2F)C1 (stereo not drawn) [Example B, 7-(3-Amino-pyrrolidin-1-yl)-1-(2,4-difluorophenyl)-1,4-dihydro-6-fluoro--oxo-quinoline-3-carboxylic acid, reference compound]
- MIC (S. agalactiae; STR[…] 508 (Table 2)): 0.2 µg/mL (≈ 0.496 µM)
- MIC (PSEUDOMONAS CEPACIA): 6.2 µg/mL (≈ 15.4 µM)
- MIC (P. aeruginosa; PSEUDOMONAS AERUGINOSA A5007): 0.2 µg/mL (≈ 0.496 µM)
- MIC (P. aeruginosa; PSEUDOMONAS AERUGINOSA BMH10): 0.1 µg/mL (≈ 0.248 µM)
- MIC (P. aeruginosa; PSEUDOMONAS AERUGINOSA K799/61): 0.05 µg/mL (≈ 0.124 µM)
- MIC (P. aeruginosa; PSEUDOMONAS AERUGINOSA K799/WT): 0.2 µg/mL (≈ 0.496 µM)
- MIC (K. pneumoniae; ATCC8045, 18 h, KLEBSIELLA PNEUMONIAE ATCC 8045, read-out: MIC): 0.01 µg/mL (≈ 0.0248 µM)
- MIC (S. pyogenes; STREPTOCOCCUS PYOGENES 930 CONST): 0.1 µg/mL (≈ 0.248 µM)
- MIC (S. pyogenes; STREPTOCOCCUS PYOGENES EE561): 0.2 µg/mL (≈ 0.496 µM)
- Blood Level of Compound ([1]; t = 1.0 h): 500 ng/mL
- Blood Level of Compound ([1]; t = 2.0 h): 700 ng/mL
- Blood Level of Compound ([1]; t = 3.0 h): 900 ng/mL
- Blood Level of Compound ([1]; t = 6.0 h): 700 ng/mL
- Blood Level of Compound ([1]; t = 24.0 h): 0 ng/mL
- MIC (EN[…]): 0.2 µg/mL (≈ 0.496 µM)
- MIC (S. aureus; 18 h, STAPHYLOCOCCUS AUREUS 45): 0.1 µg/mL (≈ 0.248 µM)
- MIC (S. aureus; 18 h, STAPHYLOCOCCUS AUREUS 45RAR2): 0.1 µg/mL (≈ 0.248 µM)
- MIC (S. aureus; 18 h, STAPHYLOCOCCUS AUREUS A5177): 0.05 µg/mL (≈ 0.124 µM)
- MIC (S. aureus; 18 h, STAPHYLOCOCCUS AUREUS CMX 503A): 0.05 µg/mL (≈ 0.124 µM)
- MIC (S. aureus; 18 h, STAPHYLOCOCCUS AUREUS CMX 553): 0.05 µg/mL (≈ 0.124 µM)
- MIC (S. aureus; 18 h, STAPHYLOCOCCUS AUREUS CMX 6868): 0.05 µg/mL (≈ 0.124 µM)
- MIC (S. aureus; ATCC6538P, 18 h, STAPHYLOCOCCUS AUREUS ATCC 6538P): 0.02 µg/mL (≈ 0.0496 µM)
- MIC (E. coli; 18 h, ESCHERICHIA COLI DC-2): 0.2 µg/mL (≈ 0.496 µM)
- MIC (E. coli; 18 h, ESCHERICHIA COLI H560): 0.02 µg/mL (≈ 0.0496 µM)
- MIC (E. coli; 18 h, ESCHERICHIA COLI JUHL): 0.02 µg/mL (≈ 0.0496 µM)
- MIC (E. coli; 18 h, ESCHERICHIA COLI KNK 437): 0.2 µg/mL (≈ 0.496 µM)
- MIC (E. coli; 18 h, ESCHERICHIA COLI SS): 0.002 µg/mL (≈ 0.00496 µM)
- MIC (M[…]; ATCC4698, 18 h, M[…] ATCC 4698): 0.78 µg/mL (≈ 1.93 µM)
- MIC (M[…]; ATCC9341, 18 h, M[…] ATCC 9341): 0.39 µg/mL (≈ 0.967 µM)
- MIC [3]: 0.1 µg/mL (≈ 0.248 µM)
- solubility [2]: 8 µg/mL (≈ 19.8 µM)
- MIC (STREPTOCOCCUS BOVIS): 0.39 µg/mL (≈ 0.967 µM)
- MIC (ACINETOBACTER SP): 0.05 µg/mL (≈ 0.124 µM)
- MIC (PROVIDENCIA STUARTII): 1.56 µg/mL (≈ 3.87 µM)
